Results as given in ChEMBL document CHEMBL1208678, “Synthesis of some new 4(3H)-quinazolinone-2-carboxaldehyde thiosemicarbazones and their metal complexes and a study on their anticonvulsant, analgesic, cytotoxic and antimicrobial activities - part-1” (Eur J Med Chem, 2010).
≈ marks a conversion by molar mass, not a printed value. Calls of active or inactive are those of the source. No cut-off for these calls is given here.

What was measured:
[1] = tested on: Pseudomonas aeruginosa; assay: Antibacterial activity against Pseudomonas aeruginosa ATCC 9027 at 100 ug after 24 hrs by paper disc method; assay type: functional; conditions: ATCC 9027, 24 h, read-out: IZ
[2] = tested on: Bacillus subtilis; assay: Antibacterial activity against Bacillus subtilis ATCC 6633 at 100 ug after 24 hrs by paper disc method; assay type: functional; conditions: ATCC 6633, 24 h, read-out: IZ
[3] = tested on: Escherichia coli; assay: Antibacterial activity against Escherichia coli ATCC 7839 at 100 ug after 24 hrs by paper disc method; assay type: functional; conditions: ATCC 7839, 24 h, read-out: IZ
[4] = tested on: Fusarium oxysporum; assay: Antifungal activity against Fusarium oxysporum at 100 ug after 24 hrs by paper disc method; assay type: functional; conditions: for zone of inhibition at 100 µg/disc: read-out: IZ
[5] = tested on: Aspergillus ochraceus; assay: Antifungal activity against Aspergillus ochraceus Wilhelm at 100 ug after 24 hrs by paper disc method; assay type: functional; conditions: for zone of inhibition at 100 µg/disc: read-out: IZ
[6] = tested on: Rattus norvegicus; assay: Anticonvulsant activity against pentylenetetrazole-induced seizure in Wistar rat assessed as duration of seizure at 2 mg/kg, ip administered 45 mins before pentylenetetrazole challenge (reference value: 312 seconds); assay type: functional; conditions: route intraperitoneal
[7] = tested on: Mus musculus; assay: Analgesic activity in Swiss albino mouse assessed as reaction time at 2 mg/kg, ip after 1 hr by hotplate method (reference value: 7.5 seconds); assay type: functional; conditions: route intraperitoneal
[8] = tested on: Rattus norvegicus; assay: Anticonvulsant activity in Wistar rat assessed as protection against pentylenetetrazole-induced seizure at 2 mg/kg, ip administered 45 mins before pentylenetetrazole challenge; assay type: functional, organism-based; set-up: dose 2 mg/kg
[9] = tested on: Mus musculus; assay: Analgesic activity in Swiss albino mouse assessed as reaction time at 2 mg/kg, ip after 0.5 hrs by hotplate method (reference value: 7.4 seconds); assay type: functional; conditions: route intraperitoneal
[10] = tested on: Rattus norvegicus; assay: Anticonvulsant activity against pentylenetetrazole-induced seizure in Wistar rat assessed as shock latency time at 2 mg/kg, ip administered 45 mins before pentylenetetrazole challenge (reference value: 118 seconds); assay type: functional; conditions: route intraperitoneal
[11] = tested on: Staphylococcus aureus; assay: Antibacterial activity against Staphylococcus aureus ATCC 6538 at 100 ug after 24 hrs by paper disc method; assay type: functional; conditions: ATCC 6538, 24 h, read-out: IZ
[12] = Cytotoxicity against mouse EAC cells assessed as cell death at 100 ug/ml after 2 hrs by Trypan blue exclusion method; assay type: functional, Ehrlich
[13] = Cytotoxicity against mouse EAC cells assessed as cell death at 25 ug/ml after 2 hrs by Trypan blue exclusion method; assay type: functional, Ehrlich
[14] = tested on: Rattus norvegicus; assay: Anticonvulsant activity in Wistar rat assessed as protection against pentylenetetrazole-induced seizure at 50 mg/kg, ip administered 45 mins before pentylenetetrazole challenge; assay type: functional, organism-based; set-up: dose 50 mg/kg
[15] = tested on: Rattus norvegicus; assay: Anticonvulsant activity against pentylenetetrazole-induced seizure in Wistar rat assessed as shock latency time at 50 mg/kg, ip administered 45 mins before pentylenetetrazole challenge (reference value: 118 seconds); assay type: functional; conditions: route intraperitoneal
[16] = tested on: Rattus norvegicus; assay: Anticonvulsant activity against pentylenetetrazole-induced seizure in Wistar rat assessed as duration of seizure at 50 mg/kg, ip administered 45 mins before pentylenetetrazole challenge (reference value: 312 seconds); assay type: functional; conditions: route intraperitoneal
[17] = tested on: Mus musculus; assay: Acute toxicity in mouse assessed as mortality up to 1200 mg/kg, po; assay type: organism-based; set-up: dose 1200 mg/kg, route oral; conditions: in vivo
[18] = tested on: Mus musculus; assay: Analgesic activity in Swiss albino mouse assessed as reaction time at 50 mg/kg, ip after 0.5 hrs by hotplate method (reference value: 7.4 seconds); assay type: functional; conditions: route intraperitoneal
[19] = Cytotoxicity against mouse EAC cells assessed as cell death at 50 ug/ml after 2 hrs by Trypan blue exclusion method; assay type: functional, Ehrlich
[20] = tested on: Mus musculus; assay: Analgesic activity in Swiss albino mouse assessed as reaction time at 50 mg/kg, ip after 1 hr by hotplate method (reference value: 7.5 seconds); assay type: functional; conditions: route intraperitoneal
[21] = tested on: Bacillus subtilis; assay: Antibacterial activity against Bacillus subtilis ATCC 6633 after 24 hrs by twofold serial dilution method; assay type: functional; conditions: ATCC 6633, 24 h
[22] = tested on: Escherichia coli; assay: Antibacterial activity against Escherichia coli ATCC 7839 after 24 hrs by twofold serial dilution method; assay type: functional; conditions: ATCC 7839, 24 h
[23] = tested on: Fusarium oxysporum; assay: […] activity against Fusarium oxysporum after 24 hrs by twofold serial dilution method; assay type: functional
[24] = tested on: Staphylococcus aureus; assay: Antibacterial activity against Staphylococcus aureus ATCC 6538 after 24 hrs by twofold serial dilution method; assay type: functional; conditions: ATCC 6538, 24 h

| Compound | zone of inhibition at 100 µg/disc [1] [mm] | zone of inhibition at 100 µg/disc [2] [mm] | zone of inhibition at 100 µg/disc [3] [mm] | zone of inhibition at 100 µg/disc [11] [mm] | Activity [14] | Time [15] [s] | Time [16] [s] | Activity [17] | Time [18] [s] | Time [20] [s] | further results |
| --- | --- | --- | --- | --- | --- | --- | --- | --- | --- | --- | --- |
| CC[C@H]1OC(=O)[C@H](C)[C@@H](O[C@H]2C[C@@](C)(OC)[C@@H](O)[C@H](C)O2)[C@H](C)[C@@H](O[C@@H]2O[C@H](C)C[C@H](N(C)C)[C@H]2O)[C@](C)(O)C[C@@H](C)C(=O)[C@H](C)[C@@H](O)[C@]1(C)O [ERYTHROMYCIN] | 16 | 30 | 15 | – | – | – | – | – | – | – | – |
| NYSTATIN | – | – | – | – | – | – | – | – | – | – | inhibition zone (IZ) [4]: 20 mm; inhibition zone (IZ) [5]: 12 mm |
| CN1C(=O)CN=C(c2ccccc2)c2cc(Cl)ccc21 [DIAZEPAM] | – | – | – | – | – | – | – | – | – | – | Time [6]: 0 s; Time [7]: 65.9 s; Activity [8]: Active; Time [9]: 62.9 s; Time [10]: 3600 s |
| O=c1c2cc(I)ccc2nc(/C=N/NC(=S)Nc2ccccc2)n1-c1ccc(F)cc1 | 0 | 0 | 8 | 0 | inactive | 120 | 350 | Non-toxic | 8 | 13.5 | Activity [12]: 0%; Activity [13]: 0%; zone of inhibition at 100 µg/disc [4]: 25 mm; zone of inhibition at 100 µg/disc [5]: 0 mm; Activity [19]: 0% |
| CCNC(=S)N/N=C/c1nc2ccc(I)cc2c(=O)n1-c1ccc(F)cc1 | – | – | – | – | inactive | 280 | 520 | Non-toxic | – | – | – |
| NC(=S)N/N=C/c1nc2ccc(I)cc2c(=O)n1-c1ccccc1 | 0 | 9 | 0 | 8 | – | – | – | Non-toxic | 18.6 | 26.6 | MIC [21]: 100 µg/mL (≈ 223 µM); MIC [22]: 100 µg/mL (≈ 223 µM); zone of inhibition at 100 µg/disc [4]: 23 mm; MIC [23]: 12.5 µg/mL (≈ 27.8 µM); zone of inhibition at 100 µg/disc [5]: 0 mm; MIC [24]: 100 µg/mL (≈ 223 µM) |
| NC(=S)N/N=C/c1nc2ccc(I)cc2c(=O)n1-c1ccc(F)cc1 | – | – | – | – | inactive | 660 | 760 | Non-toxic | 19.2 | 27.2 | Activity [12]: 40%; Activity [13]: 0%; MIC [23]: 12.5 µg/mL (≈ 26.8 µM); Activity [19]: 10% |
| CCn1cc(C(=O)O)c(=O)c2cc(F)c(N3CCNCC3)cc21 [NORFLOXACIN] | 15 | 35 | 17 | 27 | – | – | – | – | – | – | – |
| CCNC(=S)N/N=C/c1nc2ccc(I)cc2c(=O)n1-c1ccccc1 | 0 | 0 | 0 | 0 | – | – | – | Non-toxic | – | – | zone of inhibition at 100 µg/disc [4]: 15 mm; zone of inhibition at 100 µg/disc [5]: 0 mm |
| CNC(=S)N/N=C/c1nc2ccc(I)cc2c(=O)n1-c1ccc(F)cc1 | – | – | – | – | inactive | 380 | 580 | Non-toxic | 11.1 | 19.2 | Activity [12]: 20%; Activity [13]: 0%; Activity [19]: 0% |
| O=c1c2cc(I)ccc2nc(/C=N/NC(=S)Nc2ccccc2)n1-c1ccccc1 | – | – | – | – | – | – | – | Non-toxic | 10.2 | 19.2 | – |
| CNC(=S)N/N=C/c1nc2ccc(I)cc2c(=O)n1-c1ccccc1 | – | – | – | – | – | – | – | Non-toxic | – | – | MIC [23]: 6 µg/mL (≈ 13 µM) |
